Patent publication US20060280697A1, “Composition” (Conopco Inc, d/b/a UNILEVER, priority 2005, published 2006)
“Also recorded” adds a separate entry of the source.

test: cooling sensation / cooling effect of synthesised compounds

SMILES | cooling effect
COc1cccc(C2=CCN(c3ccccc3O)C(=O)N2)c1 [1-(2′-hydroxyphenyl)-4-(3″-methoxyphenyl)-1,2,3,6-tetrahydropyrimidine-2-one] | good cooling effects; also recorded: exhibit a cooling effect
O=C1NC(c2ccccc2)=CCN1c1ccccc1O [1-(2′-hydroxyphenyl)-4-phenyl-1,2,3,6-tetrahydropyrimidine-2-one] | good cooling effects; also recorded: exhibit a cooling effect
O=C1NC(c2cccc([N+](=O)[O-])c2)=CCN1c1ccccc1C(F)(F)F [1-(2′-trifluoromethylphenyl)-4-(3″-nitrophenyl)-1,2,3,6-tetrahydropyrimidine-2-one] | good cooling effects; also recorded: exhibit a cooling effect
O=C1NC(c2cccc([N+](=O)[O-])c2)=CCN1c1ccccc1 [1-phenyl-4-(3″-nitrophenyl)-1,2,3,6-tetrahydropyrimidine-2-one] | good cooling effects; also recorded: exhibit a cooling effect
